Measurements taken from PMC3517478 (BMC Neurology, 2012).
Residue numbers refer to the chain shown, from its start.

Experiments:
[1] = biological target: T1, human α1R271K-GlyR expressed in HEK 293 cells (Homo sapiens, UniProt P23415, R299K); assay: Whole-cell patch-clamp, positive allosteric modulation of glycine (EC20) induced currents; type: cell-based; set-up: expressed in transfected cells; host or cells: HEK 293 (transient, electroporation; pcDNA1amp vector); conditions: R271K
T1 sequence (P23415 29-457 R299K): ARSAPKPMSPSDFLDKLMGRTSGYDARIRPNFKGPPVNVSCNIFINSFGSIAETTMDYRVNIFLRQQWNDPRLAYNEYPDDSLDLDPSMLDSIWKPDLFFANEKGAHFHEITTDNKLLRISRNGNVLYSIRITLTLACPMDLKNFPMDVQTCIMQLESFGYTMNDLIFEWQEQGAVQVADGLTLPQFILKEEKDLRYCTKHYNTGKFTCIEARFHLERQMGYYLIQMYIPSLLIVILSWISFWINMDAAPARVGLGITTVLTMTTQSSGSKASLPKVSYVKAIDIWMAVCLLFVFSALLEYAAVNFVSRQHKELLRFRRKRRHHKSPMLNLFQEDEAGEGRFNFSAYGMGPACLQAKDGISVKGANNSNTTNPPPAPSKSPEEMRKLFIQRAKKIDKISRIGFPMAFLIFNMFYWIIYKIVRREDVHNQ
Experimental: (§1) Drug-containing vials were vigorously vortexed for 30min.
(§2) A new cell was used for each protocol and at least four different experiments were performed for each condition. The concentration of the diluent EtOH corresponding to the highest drug concentration used was 17150 μM.
(§3) Currents were filtered at 2 kHz.
(§4) Currents were normalized to their own maximum response.

[2] = biological target: T2, human α1R271L-GlyR expressed in HEK 293 cells (Homo sapiens, UniProt P23415, R299L); assay: as above; type: cell-based; set-up: expressed in transfected cells; host or cells: HEK 293 (transient, electroporation; pcDNA1amp vector); conditions: R271L
T2 sequence (P23415 29-457 R299L): T1 sequence (P23415 29-457 R299K) with K271L
Experimental: as §1, §2, §3, §4

[3] = biological target: T3, human α1R271Q-GlyR expressed in HEK 293 cells (Homo sapiens, UniProt P23415, R299Q); assay: as above; type: cell-based; set-up: expressed in transfected cells; host or cells: HEK 293 (transient, electroporation; pcDNA1amp vector); conditions: R271Q
T3 sequence (P23415 29-457 R299Q): T1 sequence (P23415 29-457 R299K) with K271Q
Experimental: as §1, §2, §3, §4

[4] = biological target: T4, human α1-GlyR (WT) expressed in HEK 293 cells (Homo sapiens, UniProt P23415); assay: as above; type: cell-based; set-up: expressed in transfected cells; host or cells: HEK 293 (transient, electroporation; pCIS2 vector; co-transfected EGFP as a separate marker)
T4 sequence (P23415 29-457): T1 sequence (P23415 29-457 R299K) with K271R
Experimental: as §1, §2, §3, §4

rat alpha 1 GlyR = rat alpha 1 GlyR in HEK293; cited from earlier work

Compound	positive allosteric modulation nH ± SEM ([1]; EC20 glycine 100 μM)	EC50 ([1]; co-applied with sub-saturating (EC20) glycine 100 μM, read-out: positive allosteric modulation EC50 ± SEM)	positive allosteric modulation, potentiation [% of peak current amplitude] ± SEM ([1]; maximal positive allosteric modulation, EC20 glycine 100 μM)	positive allosteric modulation nH ± SEM ([2]; EC20 glycine 30 mM)	EC50 ([2]; co-applied with sub-saturating (EC20) glycine 30 mM, read-out: positive allosteric modulation EC50 ± SEM)	positive allosteric modulation, potentiation [% of peak current amplitude] ± SEM ([2]; maximal positive allosteric modulation, EC20 glycine 30 mM)	positive allosteric modulation nH ± SEM ([3]; EC20 glycine 10 mM)	EC50 ([3]; co-applied with sub-saturating (EC20) glycine 10 mM, read-out: positive allosteric modulation EC50 ± SEM)	positive allosteric modulation, potentiation [% of peak current amplitude] ± SEM ([3]; maximal positive allosteric modulation, EC20 glycine 10 mM)	increased potency to positively modulate glycine induced chloride currents in comparison to propofol ([4]; WT glycine receptors, propofol value from ref 21)	positive allosteric modulation nH ± SEM ([4]; WT, EC20 glycine 20 μM)	EC50 ([4]; WT, co-applied with sub-saturating (EC20) glycine 20 μM, read-out: positive allosteric modulation EC50 ± SEM)	positive allosteric modulation, potentiation [% of peak current amplitude] ± SEM ([4]; WT, maximal positive allosteric modulation, EC20 glycine 20 μM)	Hill slope nH (rat alpha 1 GlyR)
4-chloro-2,6-dimethylphenol [4-chloropropofol]	0.3 ± 0.1	6000 ± 2300 nM	231 ± 174%	0.7 ± 0.3	100 ± 200 nM	153 ± 46%	0.9 ± 1.3	1300 ± 600 nM	260 ± 52%	more than 1000 fold	2.0 ± 2.8	0.08 ± 0.02 nM	269 ± 88%	–
NCC(=O)O [glycine]	–	–	–	–	–	–	–	–	–	–	–	–	–	3.3
